Laboratory results as given in PMC4428054, “A method for human teratogen detection by geometrically confined cell differentiation and migration” (Scientific Reports, 2015).
“Also recorded” adds a separate entry of the source. Read-outs that look alike come from different tables or passages of the source.

How the values were obtained:
[1] = tested on: mouse embryonic stem cells (mESCs); conditions: disruption of beating cardiomyocyte formation from mESCs; cited from earlier work
[2] = parameters: method as in earlier work; conditions: ref 30-34 (Table 1), Supplementary refs 1-5, cited from earlier work
[3] = tested on: micropatterned human pluripotent stem cell (μP-hPSC) colonies; experiment: μP-hPSC model-based quantitative morphometric assay (disruption of annular mesoendoderm pattern); assay type: cell-based; conditions: for DC value compared with known Cmax: DC in μP-hPSC model vs Cmax in human plasma; for Does DC < IC25H9?: comparison of DC with IC25 to H9 cells; for Morphologic cluster readouts across four test groups (one-way ANOVA, post-hoc): control, low, medium, high concentrations, day 3; for DC (disruption concentration): lowest concentration which morphologically disrupts the mesoendoderm pattern vs non-treated control, 3-day mesoendoderm induction; for Teratogenicity classification in the μP-hPSC model: teratogenic if DC < IC25,H9
Method: (§1) The dose-dependent effect of each compound on the mesoendoderm pattern formation was determined by dosing at four test conditions: zero, low, medium and high drug concentrations (Fig. 3i). The cytotoxicity of each compound was evaluated in order to find the appropriate range of testing concentrations. […] The results would represent specific cytotoxicity to embryonic and adult cells respectively. Based on the cytotoxicity data, three drug concentrations (designated as low, medium and high) were selected such that the lowest concentration tested was not toxic to both H9 cells and aHDFs, and the highest concentration should not be cytotoxic to aHDFs. The tested concentration was considered as not cytotoxic if it was less than the drug’s 25% inhibitory concentration (IC25) to the tested cell line[25].
A series of imaging processing and statistical analysis were developed to quantitatively measure the teratogenic effects of each drug (Fig. 3). After three days of culture in the mesoendoderm induction medium, immunofluorescence images of T were acquired (Fig. 3ii). We employed similar image quantification algorithms previously used for analyzing collagen deposition patterns in fibrotic tissues[26] to extract 19 morphological attributes that describe the annular mesoendoderm pattern (Fig. 3iii). […] A dose response plot was then generated for each morphologic cluster (Fig. 3iv). One-way analysis of variance (ANOVA) was performed to determine whether there were significant morphologic differences among test groups for each drug (Fig. 3v).
This concentration was defined as the disruption concentration (DC). If DC < IC25,H9, we can infer that the drug is teratogenic, where it affects embryonic development without being cytotoxic to embryonic cells.
The readouts of each morphologic cluster across the four test groups (i.e. control, low, medium, high) were plotted for each drug and one-way ANOVA was performed to determine whether there were significant differences across the test groups (Supplementary Fig. S7–S11).
The autoclaved PDMS stencil was first sealed onto a 60 mm petri dish (Nunc) using 200 μl of 70% ethanol. After drying in the cell culture hood, 450 μl Matrigel^TM in DMEM/F12 (11330032, GIBCO) was then added into each stencil and incubated for 5 hr at 37 °C before use. To obtain single cell suspension, the hPSC culture was treated with Accutase (SCR005, Merck Millipore) for about 10 min, and the cells were resuspended in mTeSR1 medium supplemented with 10 μM Y27632 (688000, Calbiochem, Merck Millipore). The cells were seeded onto the PDMS stencils at 100% confluence density of 4444 cells/mm^2 and allowed to attach for 1 hr. The stencil was then removed and the unpatterned substrate was passivated by backfilling with 0.5% Pluronic F-127 (P2443–1KG, Sigma-Aldrich) in DMEM/F12. After 10 min incubation, the μP-hPSC colonies were washed 3 times with DMEM/F12 and incubated at least for 3 hr in mTeSR^TM1 medium supplemented with 10 μM Y27632 before changed to mTeSR^TM1 medium alone. Differentiation was initiated 24 hr post seeding and lasted for 3 days before collecting the samples. For phase contrast live imaging, images were acquired every 20 min by BioStation CT (Nikon) using 10X objective. The imaging period started since the induction of differentiation and lasted for 3 days.
Morphological feature extraction from T fluorescence images was done in MATLAB Image Processing Toolbox (Mathworks). First, the outline of the μP-hPSC colony was identified by intensity difference compared with background and its centroid position was determined.

[4] = tested on: H9 human embryonic stem cells; experiment: Cytotoxicity assay (MTS) in H9 cells; assay type: cell-based; conditions: for IC25H9: 25% inhibitory concentration, H9 cells, 3 days, MTS viability; for Cytotoxicity of tested concentration to hPSCs: Thalidomide 800 μM, Penicillin G 200 μg/ml
Method: as §1
(§2) The cytotoxicity test was done in 96-well tissue culture plates with 100 μl of medium with or without the drug. For each drug, 8 concentrations with 5-fold dilution were tested together with the vehicle controls. For H9 cells, the plates were coated with Matrigel^TM before cell seeding. 10,000 hES cells or 1,000 aHDF cells were plated into each well and cultured for 3 days in the test solution with half change of the medium with or without the drug every day. On day 3, cell viability was measured using CellTiter 96® AQueous One Solution Cell Proliferation Assay (MTS, G3580, Promega). […] IC25 values were acquired from either logistic regression using OriginPro 9 or direct reading from the cytotoxicity curve.

[5] = tested on: adult human dermal fibroblasts (aHDFs); experiment: Cytotoxicity assay (MTS) in adult human dermal fibroblasts; assay type: cell-based; conditions: Thalidomide 800 μM; Penicillin G 200 μg/ml
Method: as §1
as §2, with “10,000 hES cells or 1,000 aHDF cells were plated into each well and cultured for 3 days in the test solution with half change of the medium with or without the drug every day.” left out

μP-hPSC colonies = experiment: Quantitative RT-PCR of germ layer markers in drug-treated μP-hPSC colonies; assay type: cell-based, human; conditions: day 3; for Expression levels of MIXL1, GSC, NKX2.5, FOXA2, PAX6 and NESTIN / Expression level of mesoendoderm marker T compared to untreated control colonies / SOX17 expression level compared with untreated control colonies: Thalidomide 800 μM, Penicillin G 200 μg/ml; for Expression levels of MIXL1, GSC, NKX2.5, FOXA2, PAX6 and NESTIN: untreated control
From the text: Therefore, we reasoned that measuring changes in the mesoendoderm pattern, which is an assimilation of multiple cellular processes, as an assay readout for teratogenic potential, is sufficiently sensitive and may show better specificity as compared to the expression levels of a panel of molecular biomarkers for differentiation.
Total RNA was extracted from the samples on day 3 of the differentiation using the RNeasy® Plus Micro Kit (74034, QIAGEN) according to manufacturer’s protocol. Then cDNA was synthesized from the extracted RNA using High Capacity RNA-to-cDNA Kit (4387406, Applied Biosystems, Life Technologies). To analyze the gene expression levels of each sample, quantitative RT-PCR was performed using FastStart Universal SYBR Green Master (ROX) (04913914001, Roche) on the ABI 7500 Fast Real-Time PCR system (Applied Biosystems, Life Technologies) according to the manufacturer’s standard protocol. The relative quantitative expressions values of target genes were normalized to GAPDH and expressed relative to the levels of undifferentiated hPSCs using the ΔΔCT method. All primers used were commercially validated primers from GeneCopoeia^TM except for MIXL1, GSC, E-cadherin, N-cadherin, VIM, TWIST and SNAIL. The primer sequences/Catalogue numbers can be found in Supplementary Information (Supplementary Table S3).

[6] = human plasma, therapeutic dosing, cited from earlier work

## CC(C)(S)[C@@H](N)C(=O)O [D-penicillamine]
[1]
  In mEST (teratogenicity classification): non-terotogenic; also recorded: Non-teratogenic
[2]
  In vivo human data (teratogenicity): Teratogenic[32]
[2]; listed as D-Penicillamine
  In vivo human data (teratogenicity): Teratogenic
[3]
  DC value compared with known Cmax: lower than or equal to
  Does DC < IC25H9?: Yes
  Morphologic cluster readouts across four test groups (one-way ANOVA, post-hoc): significant dose-dependent morphologic disruptions of the mesoendoderm pattern
  DC (disruption concentration): 200 µg/mL
  Teratogenicity classification in the μP-hPSC model: Teratogenic
[4]
  IC25H9: 278 µg/mL

## CC1(C)S[C@@H]2[C@H](NC(=O)Cc3ccccc3)C(=O)N2[C@H]1C(=O)O [Penicillin G]
[5]
  Cytotoxicity of tested concentration to human adult fibroblasts: non-cytotoxic
[3]; 1,000 μg/ml vs zero dose control, post-hoc p = 0.001
  Mesoendoderm pattern position (CL6) in high concentration test group: significant inward mesoenoderm pattern position toward the colony centre
[3]
  DC value compared with known Cmax: much higher
  Does DC < IC25H9?: much higher and No
  Morphologic cluster readouts across four test groups (one-way ANOVA, post-hoc): no significant differences among test groups in almost all morphologic clusters except CL6
  Teratogenicity classification in the μP-hPSC model: Non-teratogenic
[4]
  IC25H9: 787 µg/mL
  Cytotoxicity of tested concentration to hPSCs: non-cytotoxic
μP-hPSC colonies
  Expression levels of MIXL1, GSC, NKX2.5, FOXA2, PAX6 and NESTIN: no significant differences
  Expression level of mesoendoderm marker T compared to untreated control colonies: higher expression level
  SOX17 expression level compared with untreated control colonies: no significant difference

## CC1=C(/C=C/C(C)=C/C=C/C(C)=C/C(=O)O)C(C)(C)CCC1 [RA, Retinoic acid]
[6]; ref Muindi et al. (1992)
  Cmax: 347 ng/mL
[1]
  In mEST (teratogenicity classification): Teratogenic
[2]
  In vivo human data (teratogenicity): Teratogenic[31]
[2]; listed as Retinoic acid
  In vivo human data (teratogenicity): Teratogenic
[3]
  DC value compared with known Cmax: lower than or equal to
  Does DC < IC25H9?: Yes
  Morphologic cluster readouts across four test groups (one-way ANOVA, post-hoc): significant dose-dependent morphologic disruptions of the mesoendoderm pattern
  DC (disruption concentration): 0.00036 µg/mL
  Teratogenicity classification in the μP-hPSC model: Teratogenic
[4]
  IC25H9: >2 µg/mL

## O=C1CCC(N2C(=O)c3ccccc3C2=O)C(=O)N1 (centres unmarked) [Thalidomide]
[6]; ref Teo et al. (2004), read-out: Cmax
  Cmax: 10.9 µM
[1]
  In mEST (teratogenicity classification): cannot be detected
[2]
  In vivo human data (teratogenicity): Teratogenic[30]
[5]
  Cytotoxicity of tested concentration to human adult fibroblasts: non-cytotoxic
[3]; Thalidomide 800 μM, Penicillin G 200 μg/ml, 3-day live imaging, vs untreated colonies
  Collective cell migration trajectory (live imaging and kymograph): migrated much more towards the colony center
[3]; Thalidomide 800 μM, Penicillin G 200 μg/ml, vs untreated colonies
  Mesoendoderm pattern morphology (T+ cells) after 3 days: much wider mesoendoderm pattern that was displaced towards the colony center
[3]
  Does DC < IC25H9?: Yes
  Morphologic cluster readouts across four test groups (one-way ANOVA, post-hoc): significant dose-dependent morphologic disruptions of the mesoendoderm pattern
  DC (disruption concentration): 30 µM
  Teratogenicity classification in the μP-hPSC model: Teratogenic
[4]
  IC25H9: >1000 µM
  Cytotoxicity of tested concentration to hPSCs: non-cytotoxic
μP-hPSC colonies; Thalidomide 800 μM vs Penicillin G 200 μg/ml
  Expression level of definitive endoderm marker SOX17 compared with Penicillin G-treated colonies: significantly lower
μP-hPSC colonies
  Expression levels of MIXL1, GSC, NKX2.5, FOXA2, PAX6 and NESTIN: no significant differences
  Expression level of mesoendoderm marker T compared to untreated control colonies: higher expression level
  SOX17 expression level compared with untreated control colonies: no significant difference

## CCCC(CCC)C(=O)O [VPA, Valproic acid]
[6]; ref Reed et al. (2006), read-out: Cmax
  Cmax: 574 µM
[2]
  In vivo human data (teratogenicity): Teratogenic
[3]
  DC value compared with known Cmax: lower than or equal to
  Does DC < IC25H9?: Yes
  Morphologic cluster readouts across four test groups (one-way ANOVA, post-hoc): significant dose-dependent morphologic disruptions of the mesoendoderm pattern
  DC (disruption concentration): 100 µM
[4]
  IC25H9: 130 µM
